Test results: ChEMBL document CHEMBL5131502, “Improving the treatment of Parkinson's disease: Structure-based development of novel 5-HT2A receptor antagonists/inverse agonists” (Eur J Med Chem, 2022)
Converted amounts (≈) assume the structure as drawn.

How the values were obtained:
[1] = Plasma protein binding in rat at 10 uM; type: ADME, cell-free; conditions: read-out: PPB (converted)
[2] = biological target: Cytochrome P450 3A4 (Homo sapiens, UniProt P08684); experiment: Inhibition of CYP3A4 (unknown origin); type: ADME
Chain of Cytochrome P450 3A4 (P08684 whole entry): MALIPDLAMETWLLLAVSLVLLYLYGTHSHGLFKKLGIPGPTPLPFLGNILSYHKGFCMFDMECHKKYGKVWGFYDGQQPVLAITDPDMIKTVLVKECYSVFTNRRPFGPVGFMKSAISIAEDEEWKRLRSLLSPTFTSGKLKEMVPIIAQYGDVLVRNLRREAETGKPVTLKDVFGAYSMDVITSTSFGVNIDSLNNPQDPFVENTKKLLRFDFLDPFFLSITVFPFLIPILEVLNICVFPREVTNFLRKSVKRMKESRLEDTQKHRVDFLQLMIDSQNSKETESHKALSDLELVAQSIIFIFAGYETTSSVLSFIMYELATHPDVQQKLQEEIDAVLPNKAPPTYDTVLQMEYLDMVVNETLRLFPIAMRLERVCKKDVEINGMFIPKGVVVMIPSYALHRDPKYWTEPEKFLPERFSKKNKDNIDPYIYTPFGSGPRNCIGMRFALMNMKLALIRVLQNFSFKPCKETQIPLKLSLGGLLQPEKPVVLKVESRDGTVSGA

[3] = Toxicity in Sprague-Dawley rat assessed as apparent adverse effect at 20 to 60 mg/kg, po administered daily via gavage measured for 7 days; type: organism-based; conditions: in vivo, 168 h, dose 20-60 mg/kg, time 7 day
[4] = biological target: 5-hydroxytryptamine receptor 2B (Homo sapiens, UniProt P41595); experiment: Displacement of [3H]-LSD from human 5-HT2B receptor at 25 uM incubated for 1 hr by microbeta2 beta-counter analysis
Chain of 5-hydroxytryptamine receptor 2B (P41595 whole entry): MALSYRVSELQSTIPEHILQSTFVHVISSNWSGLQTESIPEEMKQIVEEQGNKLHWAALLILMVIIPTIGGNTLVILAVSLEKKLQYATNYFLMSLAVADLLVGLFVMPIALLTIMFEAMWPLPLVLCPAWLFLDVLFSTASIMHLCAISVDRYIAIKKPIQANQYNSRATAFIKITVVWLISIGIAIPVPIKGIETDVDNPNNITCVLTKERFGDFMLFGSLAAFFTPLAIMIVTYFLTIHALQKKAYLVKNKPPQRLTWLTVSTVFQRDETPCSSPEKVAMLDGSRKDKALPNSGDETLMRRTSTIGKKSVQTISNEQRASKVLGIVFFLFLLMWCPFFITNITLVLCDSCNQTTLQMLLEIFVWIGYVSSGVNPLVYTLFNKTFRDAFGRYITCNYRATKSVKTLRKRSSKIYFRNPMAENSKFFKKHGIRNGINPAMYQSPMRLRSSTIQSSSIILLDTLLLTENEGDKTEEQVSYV

[5] = biological target: T1, 5-hydroxytryptamine receptor 2A (Homo sapiens, UniProt P28223); experiment: Displacement of [3H]-Ketanserin from human 5-HT2A receptor at 50 nM incubated for 1 hr by microbeta scintillation counter analysis
T1 sequence (P28223 whole entry): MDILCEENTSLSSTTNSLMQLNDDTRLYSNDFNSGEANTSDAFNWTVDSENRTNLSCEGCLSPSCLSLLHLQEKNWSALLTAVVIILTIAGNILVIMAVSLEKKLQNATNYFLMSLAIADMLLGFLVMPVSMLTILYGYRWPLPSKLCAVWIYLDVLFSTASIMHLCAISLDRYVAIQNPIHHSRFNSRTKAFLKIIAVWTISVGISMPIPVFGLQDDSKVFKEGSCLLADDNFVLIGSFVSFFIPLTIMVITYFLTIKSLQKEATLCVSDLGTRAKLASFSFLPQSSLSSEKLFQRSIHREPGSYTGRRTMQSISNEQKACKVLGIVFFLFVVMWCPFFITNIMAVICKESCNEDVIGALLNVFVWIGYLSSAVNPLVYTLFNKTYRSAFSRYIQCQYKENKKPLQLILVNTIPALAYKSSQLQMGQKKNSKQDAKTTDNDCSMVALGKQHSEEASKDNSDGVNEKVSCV

[6] = Metabolic stability in human liver microsomes assessed as compound remaining at 100 uM […] followed by NADPH addition by LC/MS analysis; type: ADME, Microsome; conditions: read-out: Stability
[7] = Drug distribution in Sprague-Dawley rat brain at 6 micromol/kg administered via gavage measured after 0.5 hr by LC-MS/MS analysis; type: ADME, tissue-based; conditions: in vivo, po, dose 6 µmol/kg
[8] = Genotoxicity in Salmonella typhimurium TA100 in presence of rat liver S9 fraction by Ames test; type: toxicity, subcellular; conditions: salmonella enterica subsp. enterica serovar typhimurium
[9] = Genotoxicity in Salmonella typhimurium TA98 in absence of rat liver S9 fraction by Ames test; type: toxicity; conditions: salmonella enterica subsp. enterica serovar typhimurium
[10] = Genotoxicity in Salmonella typhimurium TA97 in presence of rat liver S9 fraction by Ames test; type: toxicity, subcellular; conditions: salmonella enterica subsp. enterica serovar typhimurium
[11] = Metabolic stability in Sprague-Dawley rat liver microsomes assessed as compound remaining at 100 uM […] followed by NADPH addition by LC/MS analysis; type: ADME, Microsome; conditions: read-out: Stability
[12] = Metabolic stability in Sprague-Dawley rat liver microsomes assessed as intrinsic clearance at 100 uM preincubated for 10 mins followed by NADPH addition by LC/MS analysis; type: ADME, Microsome; conditions: read-out: CLH
[13] = Dissociation constant, pKa of the compound; type: physicochemical
[14] = biological target: T2, 5-hydroxytryptamine receptor 2C (Homo sapiens, UniProt P28335); experiment: Displacement of [3H]- Mesulergine from human 5-HT2C receptor at 300 nM incubated for 1 hr by microbeta2 beta-counter analysis
T2 sequence (P28335 whole entry): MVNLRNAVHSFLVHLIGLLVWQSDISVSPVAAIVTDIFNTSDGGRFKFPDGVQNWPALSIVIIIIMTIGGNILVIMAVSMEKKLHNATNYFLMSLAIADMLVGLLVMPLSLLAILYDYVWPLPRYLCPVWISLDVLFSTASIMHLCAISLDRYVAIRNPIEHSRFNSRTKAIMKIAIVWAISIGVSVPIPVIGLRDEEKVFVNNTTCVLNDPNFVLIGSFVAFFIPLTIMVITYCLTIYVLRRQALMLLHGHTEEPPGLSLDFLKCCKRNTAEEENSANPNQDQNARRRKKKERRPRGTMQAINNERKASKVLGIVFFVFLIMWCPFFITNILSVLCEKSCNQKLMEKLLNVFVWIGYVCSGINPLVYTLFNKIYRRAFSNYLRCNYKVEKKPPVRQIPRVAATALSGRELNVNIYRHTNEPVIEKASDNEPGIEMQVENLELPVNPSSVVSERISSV

[15] = Metabolic stability in human liver microsomes assessed as half life at 100 uM preincubated for 10 mins followed by NADPH addition by LC/MS analysis; type: ADME, Microsome
[16] = Genotoxicity in Salmonella typhimurium TA102 in presence of rat liver S9 fraction by Ames test; type: toxicity, subcellular; conditions: salmonella enterica subsp. enterica serovar typhimurium
[17] = biological target: T1, 5-hydroxytryptamine receptor 2A; experiment: Inverse agonist activity at 5-HT2A receptor (unknown origin) expressed in mouse NIH3T3 cells using o-nitrophenyl-D-galacto pyranoside incubated for 120 hrs; type: functional, cell-based
[18] = Metabolic stability in Sprague-Dawley rat liver microsomes assessed as half life at 100 uM preincubated for 10 mins followed by NADPH addition by LC/MS analysis; type: ADME, Microsome
[19] = Drug distribution in Sprague-Dawley rat brain at 6 micromol/kg administered via gavage measured after 6 hrs by LC-MS/MS analysis; type: ADME, tissue-based; conditions: in vivo, po, dose 6 µmol/kg
[20] = biological target: Cytochrome P450 2C19 (Homo sapiens, UniProt P33261); experiment: Inhibition of CYP2C19 (unknown origin); type: ADME
Chain of Cytochrome P450 2C19 (P33261 whole entry): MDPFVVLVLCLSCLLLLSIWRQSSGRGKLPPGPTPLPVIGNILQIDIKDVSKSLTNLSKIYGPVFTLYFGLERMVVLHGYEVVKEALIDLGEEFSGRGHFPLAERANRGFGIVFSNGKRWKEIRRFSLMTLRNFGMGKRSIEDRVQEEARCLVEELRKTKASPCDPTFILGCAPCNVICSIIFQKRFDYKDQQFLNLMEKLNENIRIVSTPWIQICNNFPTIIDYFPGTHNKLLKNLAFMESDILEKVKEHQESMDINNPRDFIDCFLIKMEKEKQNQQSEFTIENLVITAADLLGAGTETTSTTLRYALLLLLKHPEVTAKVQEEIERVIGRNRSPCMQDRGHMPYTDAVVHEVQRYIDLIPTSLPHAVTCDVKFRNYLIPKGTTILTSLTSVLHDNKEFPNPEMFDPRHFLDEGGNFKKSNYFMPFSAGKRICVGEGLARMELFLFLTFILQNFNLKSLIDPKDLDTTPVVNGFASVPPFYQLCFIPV

[21] = Genotoxicity in Salmonella typhimurium TA1535 in presence of rat liver S9 fraction by Ames test; type: toxicity, subcellular; conditions: salmonella enterica subsp. enterica serovar typhimurium
[22] = Genotoxicity in Salmonella typhimurium TA98 in presence of rat liver S9 fraction by Ames test; type: toxicity, subcellular; conditions: salmonella enterica subsp. enterica serovar typhimurium
[23] = biological target: Cytochrome P450 2C9 (Homo sapiens, UniProt P11712); experiment: Inhibition of CYP2C9 (unknown origin); type: ADME
Chain of Cytochrome P450 2C9 (P11712 whole entry): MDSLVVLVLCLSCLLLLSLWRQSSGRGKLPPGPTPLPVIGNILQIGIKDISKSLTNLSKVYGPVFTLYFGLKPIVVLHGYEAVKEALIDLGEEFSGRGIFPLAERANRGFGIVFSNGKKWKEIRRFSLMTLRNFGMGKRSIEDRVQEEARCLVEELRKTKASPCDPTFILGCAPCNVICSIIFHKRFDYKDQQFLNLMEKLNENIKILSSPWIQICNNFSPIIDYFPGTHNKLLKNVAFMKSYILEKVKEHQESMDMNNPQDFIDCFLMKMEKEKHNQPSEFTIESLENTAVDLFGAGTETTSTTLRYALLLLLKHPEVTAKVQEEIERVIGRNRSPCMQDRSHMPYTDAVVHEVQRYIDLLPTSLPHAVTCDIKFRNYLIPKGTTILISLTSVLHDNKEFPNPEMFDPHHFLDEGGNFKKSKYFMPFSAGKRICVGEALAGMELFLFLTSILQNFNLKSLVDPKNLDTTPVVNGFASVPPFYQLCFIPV

[24] = Plasma protein binding in monkey at 10 uM; type: ADME, cell-free, Macaca mulatta; conditions: rhesus monkey, read-out: PPB (converted)
[25] = Genotoxicity in Salmonella typhimurium TA102 in absence of rat liver S9 fraction by Ames test; type: toxicity; conditions: salmonella enterica subsp. enterica serovar typhimurium
[26] = Genotoxicity in Salmonella typhimurium TA1535 in absence of rat liver S9 fraction by Ames test; type: toxicity; conditions: salmonella enterica subsp. enterica serovar typhimurium
[27] = Genotoxicity in Salmonella typhimurium TA100 in absence of rat liver S9 fraction by Ames test; type: toxicity; conditions: salmonella enterica subsp. enterica serovar typhimurium
[28] = Toxicity in Sprague-Dawley rat assessed as animal death at 20 to 60 mg/kg, po administered daily via gavage measured for 7 days; type: organism-based; conditions: in vivo, 168 h, dose 20-60 mg/kg, time 7 day
[29] = Plasma protein binding in human at 10 uM; type: ADME, cell-free; conditions: read-out: PPB (converted)
[30] = biological target: T3, Cytochrome P450 1A2 (Homo sapiens, UniProt P05177); experiment: Inhibition of CYP1A2 (unknown origin); type: ADME
T3 sequence (P05177 whole entry): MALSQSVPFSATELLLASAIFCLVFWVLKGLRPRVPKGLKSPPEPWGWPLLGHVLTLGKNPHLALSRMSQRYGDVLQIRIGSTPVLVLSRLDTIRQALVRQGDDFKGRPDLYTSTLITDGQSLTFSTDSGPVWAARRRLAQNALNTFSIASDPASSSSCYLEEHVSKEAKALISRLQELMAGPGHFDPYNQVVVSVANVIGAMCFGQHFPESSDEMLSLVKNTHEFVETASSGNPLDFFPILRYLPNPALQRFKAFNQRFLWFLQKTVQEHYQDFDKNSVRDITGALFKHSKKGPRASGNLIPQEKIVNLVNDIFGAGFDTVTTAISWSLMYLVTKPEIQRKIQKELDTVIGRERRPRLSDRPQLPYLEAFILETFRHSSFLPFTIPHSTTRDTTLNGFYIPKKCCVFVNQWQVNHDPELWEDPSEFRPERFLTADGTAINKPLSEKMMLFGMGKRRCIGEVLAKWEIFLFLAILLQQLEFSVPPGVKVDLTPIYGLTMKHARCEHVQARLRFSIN

[31] = Genotoxicity in Salmonella typhimurium TA97 in absence of rat liver S9 fraction by Ames test; type: toxicity; conditions: salmonella enterica subsp. enterica serovar typhimurium
[32] = Drug distribution in Sprague-Dawley rat brain at 6 micromol/kg administered via gavage measured after 2 hrs by LC-MS/MS analysis; type: ADME, tissue-based; conditions: in vivo, po, dose 6 µmol/kg
[33] = Metabolic stability in dog liver microsomes assessed as compound remaining at 100 uM […] followed by NADPH addition by LC/MS analysis; type: ADME, Canis lupus familiaris, Microsome; conditions: read-out: Stability
[34] = Metabolic stability in human liver microsomes assessed as intrinsic clearance at 100 uM preincubated for 10 mins followed by NADPH addition by LC/MS analysis; type: ADME, Microsome; conditions: read-out: CLH
[35] = Aqueous solubility of compound at pH 7.4; type: physicochemical
[36] = biological target: Cytochrome P450 2D6 (Homo sapiens, UniProt P10635); experiment: Inhibition of CYP2D6 (unknown origin); type: ADME
Chain of Cytochrome P450 2D6 (P10635 whole entry): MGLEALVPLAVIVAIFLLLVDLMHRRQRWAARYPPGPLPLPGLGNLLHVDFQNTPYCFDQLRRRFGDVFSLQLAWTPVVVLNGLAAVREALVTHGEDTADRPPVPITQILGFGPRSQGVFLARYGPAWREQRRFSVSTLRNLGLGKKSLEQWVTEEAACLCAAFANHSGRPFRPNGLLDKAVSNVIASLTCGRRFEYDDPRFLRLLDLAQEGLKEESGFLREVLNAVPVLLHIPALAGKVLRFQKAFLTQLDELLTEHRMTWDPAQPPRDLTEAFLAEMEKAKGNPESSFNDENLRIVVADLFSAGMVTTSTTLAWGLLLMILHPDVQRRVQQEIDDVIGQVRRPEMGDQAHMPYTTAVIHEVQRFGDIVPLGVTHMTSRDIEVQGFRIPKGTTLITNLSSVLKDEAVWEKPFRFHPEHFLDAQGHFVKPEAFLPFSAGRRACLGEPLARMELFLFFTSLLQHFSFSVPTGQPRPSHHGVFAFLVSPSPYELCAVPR

[37] = biological target: Voltage-gated inwardly rectifying potassium channel KCNH2 (Homo sapiens, UniProt Q12809); experiment: Inhibition of hERG potassium channel expressed in CHO cells at -80 mV holding potential by whole cell patch clamp assay; type: toxicity, cell-based
Chain of Voltage-gated inwardly rectifying potassium channel KCNH2 (Q12809 whole entry): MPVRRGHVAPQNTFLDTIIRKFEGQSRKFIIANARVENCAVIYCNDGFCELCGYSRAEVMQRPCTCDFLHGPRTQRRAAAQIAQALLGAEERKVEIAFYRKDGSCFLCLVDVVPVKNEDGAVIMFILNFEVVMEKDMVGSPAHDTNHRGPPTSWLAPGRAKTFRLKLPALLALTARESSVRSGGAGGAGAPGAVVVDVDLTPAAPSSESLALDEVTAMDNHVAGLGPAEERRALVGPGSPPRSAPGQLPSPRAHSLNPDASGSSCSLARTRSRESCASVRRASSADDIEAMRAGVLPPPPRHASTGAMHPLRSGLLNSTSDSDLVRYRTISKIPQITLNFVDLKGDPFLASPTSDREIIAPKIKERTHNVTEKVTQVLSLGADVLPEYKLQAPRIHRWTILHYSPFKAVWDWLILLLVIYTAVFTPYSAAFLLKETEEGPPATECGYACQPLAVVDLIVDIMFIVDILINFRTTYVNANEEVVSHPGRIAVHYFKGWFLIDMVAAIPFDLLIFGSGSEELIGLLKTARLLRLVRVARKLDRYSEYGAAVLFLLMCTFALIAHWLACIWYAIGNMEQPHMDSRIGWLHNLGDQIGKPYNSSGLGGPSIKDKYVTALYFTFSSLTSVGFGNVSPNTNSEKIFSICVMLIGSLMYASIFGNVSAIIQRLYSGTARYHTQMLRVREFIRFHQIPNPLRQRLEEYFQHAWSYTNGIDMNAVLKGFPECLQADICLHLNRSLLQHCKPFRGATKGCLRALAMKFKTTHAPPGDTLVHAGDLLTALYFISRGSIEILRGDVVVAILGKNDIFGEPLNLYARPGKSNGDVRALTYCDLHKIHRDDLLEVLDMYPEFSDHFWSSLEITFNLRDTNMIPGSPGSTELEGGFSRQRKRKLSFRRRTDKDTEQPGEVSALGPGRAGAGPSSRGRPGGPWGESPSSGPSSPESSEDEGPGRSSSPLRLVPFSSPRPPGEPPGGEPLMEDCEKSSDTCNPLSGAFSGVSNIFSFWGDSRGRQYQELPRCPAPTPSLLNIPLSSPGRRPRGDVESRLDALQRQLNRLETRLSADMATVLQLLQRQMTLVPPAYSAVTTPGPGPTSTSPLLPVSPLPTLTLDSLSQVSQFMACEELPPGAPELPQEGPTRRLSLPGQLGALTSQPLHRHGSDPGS

[38] = Lipophilicity, logD of the compound at pH 7.4; type: physicochemical; conditions: buffer

Structure (SMILES): CN1CCC(N(Cc2ccc(F)cn2)C(=O)NCc2ccc(OCC(F)(F)F)cc2)CC1
- fraction unbound at 10 µM [1]: 0.418
- IC50 [2]: > 100000 nM
- Activity [3]: Non-Toxic
- Ki [4]: 139 nM
- Ki [5]: 0.2 nM
- remaining at 100 µM [6]: 89.2%
- Ct [7]: 120 nmol/kg
- Activity [8]: Non-Toxic
- Activity [9]: Non-Toxic
- Activity [10]: Non-Toxic
- remaining at 100 µM [11]: 66.5%
- CLint scaled at 100 µM [12]: 34.1 mL/min/kg
- pKa [13]: 8.51
- Ki [14]: 2 nM
- half-life at 100 µM [15]: > 3.1 h
- Activity [16]: Non-Toxic
- IC50 [17]: 2.1 nM
- half-life at 100 µM [18]: 1.72 h
- Ct [19]: 100 nmol/kg
- IC50 [20]: 62900 nM
- Activity [21]: Non-Toxic
- Activity [22]: Non-Toxic
- IC50 [23]: > 100000 nM
- fraction unbound at 10 µM [24]: 0.383
- Activity [25]: Non-Toxic
- Activity [26]: Non-Toxic
- Activity [27]: Non-Toxic
- Activity [28]: Non-Toxic
- fraction unbound at 10 µM [29]: 0.309
- IC50 [30]: 8500 nM
- Activity [31]: Non-Toxic
- Ct [32]: 164 nmol/kg
- remaining at 100 µM [33]: 76.4%
- CLint scaled at 100 µM [34]: < 6.7 mL/min/kg
- solubility [35]: 710 µg/mL (≈ 1560 µM)
- IC50 [36]: > 100000 nM
- IC50 [37]: 1100 nM
- logD [38]: 1.97
